Experimental data as given in ChEMBL document CHEMBL5604062, “ASAP - ZIKV NS2B-NS3 protease fluorescence dose response” (2024).
Several values for one entry are separate records, joined by “and”; a condition that tells them apart may be missing. Equal entries are not always repeated.

Target: Nonstructural protein 3 (Zika virus, UniProt A0A024AXB9)
Assay: Functional biochemical assay to identify treatments for viral infectious disease that targets Zika NS2B-NS3 protease. Utilizing a direct enzyme activity measurement method, reading the fluorescence intensity is used to characterize the relative potency of inhibitors as IC50.
Set-up: species or system PRVABC59

Sequence of Nonstructural protein 3 (A0A024AXB9 whole entry): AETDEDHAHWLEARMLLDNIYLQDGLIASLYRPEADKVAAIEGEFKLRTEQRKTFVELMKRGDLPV

Structure (SMILES)	IC50
CCc1sc(C(=O)Nc2cccc(-c3nnn[nH]3)c2)cc1C	> 99.5 µM
CC[C@@H](Cc1nnn[nH]1)c1ccc(NC(=O)c2cc(Cl)cc(NC(=O)OCc3ccccc3)c2)cc1	18.7 µM
COc1cc(NS(=O)(=O)c2ccc(Oc3ccccc3Cl)cc2)c(C(=O)O)cc1Cl	16.3 µM
NCc1ccc(NC(=O)c2cc(Cl)cc(NC(=O)OCc3ccccc3)c2)cc1	10.3 µM
O=C(Nc1ccc2c(c1)CNC2)c1cccc2c1OCO2	2.87 µM
NCCc1csc2cc(C(=O)Nc3ccc4c(c3)CNC4)ccc12	0.144 µM
Cc1c(C(=O)Nc2cccc(Cn3ccccc3=O)c2)cc(C2CC2)n1C	> 25 µM
Cc1ncc(NC(=O)OCc2ccccc2)cc1C(=O)Nc1cccc(CN)c1	> 99.5 µM
O=c1[nH]c2cc(Cl)ccc2n1Cc1ccc(-c2nn[nH]n2)cc1	> 99.5 µM
O=C(NCC(F)F)[C@H](Nc1ccc2c(c1)CNC2)c1cccc(Cl)c1	0.082 µM and 0.066 µM
NCc1cccc(NC(=O)c2cccc(CN)c2)c1	1.87 µM
O=C(Nc1ccc2c(c1)CNC2)N1CC(F)(F)CC2(CCC2)C1	> 25 µM
NCCCc1ccc(C(=O)N2CC(c3cccc(Br)c3)C2)cc1	> 99.5 µM
O=C(O)c1cc(Cl)ccc1S(=O)(=O)Nc1ccc(-c2cccc(F)c2)cc1	> 99.5 µM
CCn1c(=O)c(N2C[C@H](O)C3(CC3)C2)nc2ccccc21	> 99.5 µM
Cc1cc(-c2cc(F)cc(C(=O)Nc3ccc4c(c3)CNC4)c2)[nH]n1	0.09 µM and 0.055 µM
O=C(Nc1ccc2c(c1)CNC2)c1cc(Cl)ccc1SC1CCCC1	0.857 µM
NCCc1cccc(NC(=O)c2cc(Cl)cc3[nH]ncc23)c1	0.632 µM
COc1cc(C(=O)Nc2cnc3ccccc3c2)nc(N2CCNCC2)n1	> 99.5 µM
Cc1c(C(=O)Nc2cc(-c3cccnc3)ccn2)cnn1C1CC1	> 25 µM
O=C(Nc1ccc2c(c1)CNC2)c1cc(Cl)ccc1-n1cncn1	0.876 µM
NCc1cccc(NC(=O)[C@H](NC(=O)OCc2ccccc2)C2CCCCC2)c1	> 99.5 µM
O=C(O)c1cc(Oc2ccc(F)cc2)c(F)cc1NS(=O)(=O)c1ccc(Oc2ccccc2Cl)cc1	3.67 µM
CN1CCN(Cc2cccc(CNC(=O)[C@@H](NC(=O)OCc3ccccc3)c3ccc(OCc4ccccc4)cc3)c2)CC1	> 99.5 µM
O=C(Nc1cc2c(c(C3=CC[C@H](O)CC3)c1)CNC2)c1cc(Cl)cc2[nH]ncc12	0.065 µM and 0.041 µM
CC(C)Nc1c(-c2cc(Cl)cc3[nH]ncc23)nc2ccc3c(n12)CNC3	> 25 µM

Structure (SMILES)	IC50
Fc1cc(CNc2ccc3c(n2)CNC3)c2cn[nH]c2c1	> 25 µM
NCc1cccc(NC(=O)[C@@H](NC(=O)OCc2ccccc2)C2CCCCC2)c1	> 99.5 µM
CC(C)CCN1Cc2ccc(NC(=O)c3cc(Cl)cc4[nH]ncc34)cc2C1	3.39 µM
CS(=O)(=O)c1cc(CN)cc(NC(=O)c2cc(Cl)cc(NC(=O)OCc3ccccc3)c2)c1	23.3 µM
O=C(O)C[C@H]1CN(c2ccc(-c3cc(Cl)cc(NC(=O)OCc4ccccc4)c3)cn2)CCO1	> 99.5 µM
O=C(Nc1ccc2c(c1)CNC2)c1cc(Cl)nc2[nH]ccc12	2.24 µM
NCc1cccc(NC(=O)[C@@H](NC(=O)OCc2ccccc2)c2cccc(-c3ccc(N)nc3)c2)c1	43.6 µM
CCn1c(=O)c(N2CC3(CCC3)C[C@@H]2C)nc2ccccc21	> 99.5 µM
O=C(Cc1cccc2[nH]ncc12)Nc1ccc2c(c1)CNC2	> 25 µM
CCCN1C(=O)[C@](Nc2ccc3c(c2)CNC3)(C(=O)NC)c2cc(Cl)ccc21	> 25 µM
Cc1c(C(=O)Nc2ccc3c(c2)CS(=O)(=O)C3)cc(C2CC2)n1C	> 25 µM
Cc1nccn1-c1ccc(NS(=O)(=O)c2ccc(Cl)cc2C(=O)O)cc1F	> 99.5 µM
NCc1ccc2c(c1)[C@H]1OCCC[C@H]1[C@H](c1cc(Cl)cc(NC(=O)OCc3ccccc3)c1)N2	6.91 µM
CC(C)(C)OC(=O)NCc1cccc(NC(=O)c2cc(N)cc(Cl)c2)c1	> 99.5 µM
COC(=O)c1cc2c(cc1NC(=O)c1cc(F)cc3[nH]ncc13)CNC2	0.05 µM and 0.029 µM
CN(C)C(=O)N1Cc2ccc(NC(=O)c3cc(Cl)cc4[nH]ncc34)cc2C1	> 25 µM
CCn1ccnc(N2C[C@@H](O)[C@H](c3c[nH]c4ccccc34)C2)c1=O	> 99.5 µM
CSc1ccc([C@H](CC(=O)Nc2cccc(CN)c2)NC(=O)OCc2ccccc2)cc1	43.7 µM
O=C(Nc1cc(Cl)cc(C(=O)Nc2ccc3c(c2)C[C@H](O)C3)c1)OCc1ccccc1	> 99.5 µM
O=C(O)c1cc(Cl)ccc1NS(=O)(=O)c1ccc(OCc2cccnc2)cc1	> 99.5 µM
Cc1cc(NC(=O)c2cc(C3CC3)n(C)c2C)cnc1N1CCCCC1	> 25 µM
CCn1nccc1S(=O)(=O)N[C@@H](C(=O)Nc1cccc(CN)c1)c1ccc(OCc2ccccc2)cc1	> 99.5 µM
O=C(O)c1ccc(-c2cc(NC(=O)c3cc(F)cc4[nH]ncc34)cc3c2CNC3)cc1	0.035 µM and 0.029 µM
CC(C)c1cc(NC(=O)OCc2ccccc2)cc(C(=O)Nc2cccc(CN)c2)c1	20 µM
C=CC[C@H](Nc1cccc(C(=O)O)c1)c1cc(Cl)cc2[nH]ncc12	> 99.5 µM
Brc1nc(Br)n(Cc2cscn2)n1	> 99.5 µM

Structure (SMILES)	IC50
CN1CCc2c([nH]c3ccc(C(=O)Nc4ccc5c(c4)CNC5)cc23)C1=O	1.17 µM
O=C(O)CCCc1ccc(NC(=O)c2cc(Cl)cc(NC(=O)OCc3ccccc3)c2)cc1	> 99.5 µM
NCc1cccc(NC(=O)c2cncc(Cl)c2)c1	48.5 µM
CS(=O)(=O)c1ccc(-c2cccc([C@H](NC(=O)OCc3ccccc3)C(=O)Nc3cccc(CN)c3)c2)cn1	> 99.5 µM
Cn1nc(CNc2ccc3c(c2)CNC3)cc1C1CC1	10.9 µM
Cc1ccc(C(=O)Nc2cccc(CN)c2)cc1NC(=O)Cc1ccncc1	> 99.5 µM
O=C(Nc1cc(Cl)cc(-c2ccc3nc(C(=O)O)ncc3c2)c1)OCc1ccccc1	24.7 µM
C[C@H]1COCCN1C(=O)c1cc(Cl)ccc1NS(=O)(=O)c1ccc(Oc2ccccc2Cl)cc1	> 99.5 µM
Cc1cc(C(=O)Nc2cccc(CN)c2)cc(NCc2cnn(C)c2)n1	> 99.5 µM
CC(C)Oc1cc(CN)ccc1NS(=O)(=O)c1ccc(Oc2ccccc2Cl)cc1	64.4 µM
NCc1cccc(NC(=O)[C@H](NC(=O)OCc2ccccc2)c2ccc(Br)c(F)c2)c1	64.4 µM
O=C(NCC1CC1)c1cc(Cl)cc(NS(=O)(=O)c2ccc(Oc3ccccc3Cl)cc2)c1	49.9 µM
NCc1cccc(NC(=O)c2cccc3c2CCC3)c1	19.5 µM
NCCCOc1cc2c(c(-c3ccc(N)nc3)c1)CCB(O)O2	> 99.5 µM
Cc1c(C(=O)Nc2cc(C(=O)N3CC[C@H](O)C3)ccn2)cc(C2CC2)n1C	> 25 µM
O=C(Nc1cc(Cl)cc(C(=O)Nc2cccc(C3(C(=O)O)CCC3)c2)c1)OCc1ccccc1	69 µM
N#Cc1c[nH]c2c(C(=O)Nc3ccc4c(c3)CNC4)cccc12	0.582 µM
CNC(=O)[C@H](Nc1cccc(C2(C(=O)O)CCC2)c1)c1cc(Cl)cc(C2CC2)c1	> 99.5 µM
O=C(Nc1ccc2c(c1)CNC2)c1cc(Br)cc2c1OCO2	0.848 µM
NCCOc1ccnc(NS(=O)(=O)c2ccc(Oc3ccccc3Cl)cc2)c1	> 99.5 µM
Clc1cc([C@H](C#CC2CC2)Nc2ccc3c(c2)CNC3)c2cn[nH]c2c1	1.35 µM
CN1CCc2c(cccc2NC(=O)c2cc(Cl)cc(NC(=O)OCc3ccccc3)c2)C1	> 99.5 µM
NCc1cccc(NC(=O)c2cc(Cl)cc(F)c2F)c1	59.3 µM
CC1(C)CCC([C@@H](NC(=O)OCc2ccccc2)C(=O)Nc2cccc(CN)c2)CC1	94.3 µM
Cc1cc(NC(=O)OCc2ccccc2)cc(C(=O)Nc2cccc(CN)c2)c1C	> 99.5 µM
Cc1ncc(COc2ccc([C@H](NC(=O)OCc3ccccc3)C(=O)Nc3cccc(CN)c3)cc2)cn1	> 99.5 µM

Structure (SMILES)	IC50
O=Cc1ccc(N2CCC(C(=O)NCCC3CCN(Cc4ccccc4)CC3)CC2)cc1	> 50.2 µM
CCC(C)(C)C(=O)N[C@H](C(=O)Nc1cccc(CN)c1)c1ccc(OCc2ccccc2)cc1	> 99.5 µM
Cc1ccc(CNC(=O)[C@@H](NC(=O)OCc2ccccc2)c2ccc(OCc3ccccc3)cc2)cn1	> 99.5 µM
O=C1Cc2c(cccc2C(=O)NC[C@H]2C[C@@H](n3cccn3)C2)N1	> 25 µM
O=S(=O)(Nc1cccc(-c2nnn[nH]2)c1)c1cc(F)cc(Cl)c1	> 99.5 µM
Cc1cc(C(=O)Nc2cc(-c3cccnc3)ccn2)c(C)n1C	> 25 µM
CS(=O)(=O)Nc1cc(Cl)cc(C(=O)Nc2cccc(CN)c2)c1	> 99.5 µM
CCOC(=O)c1cc(C(=O)N[C@H](C(=O)Nc2cccc(CN)c2)c2ccc(OCc3ccccc3)cc2)n(C)n1	23.7 µM and 23.1 µM
COc1ccc(COc2ccc(S(=O)(=O)Nc3ccc(Cl)cc3C(=O)O)cc2)nc1	> 99.5 µM
O=Cc1ccc(N2CCC(C(=O)N3CCN(CCc4ccccc4)CC3)CC2)cc1	> 50.2 µM
CNC(=O)[C@H](Nc1cccc(-c2nn[nH]n2)c1)c1cc(Cl)cc(NC(=O)OCc2ccccc2)c1	> 99.5 µM
Cc1nn(C)c(C)c1[C@H]1CCCN1C(=O)Nc1ccc2c(c1)CNC2	> 25 µM
CC(C)(C)OC(=O)NCc1cccc(NC(=O)[C@@H](NC(=O)OCc2ccccc2)c2cccc(O)c2)c1	> 99.5 µM
O=S(=O)(c1cccs1)N1CCN(CC=Cc2ccccc2)CC1	> 99.5 µM
NCCc1cccc(-c2cccc([C@@H](NC(=O)OCc3ccccc3)C(=O)Nc3cccc(CN)c3)c2)c1	10.5 µM
Cc1cc(N2CCC(NC(=O)c3cccc4c3CC(=O)N4)CC2)[nH]n1	> 25 µM
COC(=O)c1cc(Cl)ccc1NS(=O)(=O)c1ccc(Br)cc1	> 99.5 µM
Cc1cc(Cl)cc(C(=O)Nc2cccc(CN)c2)n1	> 99.5 µM
CC(C)CO[C@]1(C)C(=O)Nc2cc(F)cc(C(=O)Nc3ccc4c(c3)CNC4)c21	2.48 µM
O=C(Nc1ccc2c(c1)CN[C@H]2CO)c1cc(F)cc2[nH]ncc12	0.125 µM
NCc1cccc(NC(=O)c2cc(Cl)ccc2-n2cncn2)c1	17.7 µM
O=C(Nc1ccc2c(c1)CNC2)c1cccc2[nH]c(=O)[nH]c12	0.068 µM and 0.064 µM
Cc1ocnc1COc1ccc(S(=O)(=O)Nc2ccc(Cl)cc2C(=O)O)cc1	> 99.5 µM
Cn1ncc2cc(C(=O)N3CCC(NC(=O)[C@]4(C)CCC[C@H]4O)CC3)cc(O)c21	> 99.5 µM
c1ccc(-c2csc(C3CCN(Cc4c[nH]c5ccccc45)CC3)n2)cc1	22.4 µM
